Reference: the supplement of paper PMC8149375

Key:
Conditions in all cases: treatment: drug + dasatinib (fixed dose, not stated); 5 days
769-P [1] = test: GI50 of drug in presence of dasatinib; higher = less potent
Protocol: (§1)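 Primary HTS combination arm: 8 RCC cell lines treated with 8 doses (up to 10 uM) of each library drug plus a fixed dose of dasatinib (dose not stated) for 5 days; viability read by CellTiter-Glo and normalised to DMSO. GI50 was fitted with XLfit, AUC is the area under the dose-response curve, and minimum viability is the lowest fraction of DMSO viability across doses.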

786-O [2] = test: as above
Protocol: as §1

A498 [3] = test: as above
Protocol: as §1

ACHN [4] = test: as above
Protocol: as §1

CAKI-1 [5] = test: as above
Protocol: as §1

SN12C [6] = test: as above
Protocol: as §1

TK-10 [7] = test: as above
Protocol: as §1

UO-31 [8] = test: as above
Protocol: as §1

769-P [9] = test: minimum viability across doses, drug + dasatinib, relative to DMSO (fraction); higher = less growth inhibition
Protocol: as §1

786-O [10] = test: as above
Protocol: as §1

A498 [11] = test: as above
Protocol: as §1

ACHN [12] = test: as above
Protocol: as §1

CAKI-1 [13] = test: as above
Protocol: as §1

SN12C [14] = test: as above
Protocol: as §1

TK-10 [15] = test: as above
Protocol: as §1

UO-31 [16] = test: as above
Protocol: as §1

769-P [17] = test: AUC of dose-response viability curve, drug + dasatinib, normalised to DMSO (arbitrary (AUC of normalised viability)); higher = less growth inhibition
Protocol: as §1

786-O [18] = test: as above
Protocol: as §1

A498 [19] = test: as above
Protocol: as §1

ACHN [20] = test: as above
Protocol: as §1

CAKI-1 [21] = test: as above
Protocol: as §1

SN12C [22] = test: as above
Protocol: as §1

TK-10 [23] = test: as above
Protocol: as §1

UO-31 [24] = test: as above
Protocol: as §1

GI50 of drug (786-O [2]) [µM] | GI50 of drug (ACHN [4]) [µM] | SMILES | GI50 of drug (769-P [1]) [µM] | GI50 of drug (A498 [3]) [µM] | GI50 of drug (CAKI-1 [5]) [µM] | GI50 of drug (SN12C [6]) [µM] | GI50 of drug (TK-10 [7]) [µM] | GI50 of drug (UO-31 [8]) [µM] | minimum viability across doses (769-P [9]) | minimum viability across doses (786-O [10]) | minimum viability across doses (A498 [11]) | minimum viability across doses (ACHN [12]) | minimum viability across doses (CAKI-1 [13]) | minimum viability across doses (SN12C [14]) | minimum viability across doses (TK-10 [15]) | minimum viability across doses (UO-31 [16]) | AUC of dose-response viability curve (769-P [17]) | AUC of dose-response viability curve (786-O [18]) | AUC of dose-response viability curve (A498 [19]) | AUC of dose-response viability curve (ACHN [20]) | AUC of dose-response viability curve (CAKI-1 [21]) | AUC of dose-response viability curve (SN12C [22]) | AUC of dose-response viability curve (TK-10 [23]) | AUC of dose-response viability curve (UO-31 [24])
2.96 | > 10 | COc1ccc(COc2cc3oc(=O)c4cc(C(C)O)ccc4c3cc2OC)cc1 (stereo unspecified) [Palomid 529] + Cc1nc(Nc2ncc(C(=O)Nc3c(C)cccc3Cl)s2)cc(N2CCN(CCO)CC2)n1 [dasatinib] | 6.22 | > 10 | 5.94 | > 10 | > 10 | > 10 | 0.415 | 0.324 | 0.857 | 0.539 | 0.414 | 0.707 | 0.635 | 1.17 | 2.29 | 2.05 | 3.49 | 2.1 | 2.25 | 2.53 | 2.53 | 4.61
< 0.003 | 1.34 | Cc1ccc(Nc2nccc(N(C)c3ccc4c(C)n(C)nc4c3)n2)cc1S(N)(=O)=O.Cl [Pazopanib HCl] + Cc1nc(Nc2ncc(C(=O)Nc3c(C)cccc3Cl)s2)cc(N2CCN(CCO)CC2)n1 [dasatinib] | 8.32 | > 10 | 0.925 | 3.1 | 8.59 | 8.02 | 0.123 | 0.277 | 0.522 | 0.175 | 0.0765 | 0.327 | 0.469 | 0.248 | 2.22 | 2.29 | 3.16 | 2.13 | 1.86 | 2.37 | 2.54 | 3.27
0.404 | 0.00721 | CCOc1cc2ncc(C#N)c(Nc3ccc(F)c(Cl)c3)c2cc1NC(=O)/C=C/CN(C)C [Pelitinib (EKB-569)] + Cc1nc(Nc2ncc(C(=O)Nc3c(C)cccc3Cl)s2)cc(N2CCN(CCO)CC2)n1 [dasatinib] | 0.0484 | 1.08 | 0.0606 | 0.864 | 0.0611 | 0.216 | 0.0321 | 0.00483 | 0.0177 | 0.00232 | 0.0303 | 0.00631 | 0.00649 | 0.0179 | 1.38 | 1.79 | 2.55 | 0.845 | 1.17 | 1.78 | 1.43 | 1.8
1.56 | 2.02 | CC(C)(C)c1cc(NC(=O)Nc2ccc(-c3cn4c(n3)sc3cc(OCCN5CCOCC5)ccc34)cc2)no1 [Quizartinib (AC220)] + Cc1nc(Nc2ncc(C(=O)Nc3c(C)cccc3Cl)s2)cc(N2CCN(CCO)CC2)n1 [dasatinib] | 2.37 | 6.27 | 1.08 | > 10 | > 10 | > 10 | 0.432 | 0.256 | 0.115 | 0.315 | 0.378 | 0.627 | 0.622 | 0.859 | 2.19 | 2.25 | 2.87 | 1.89 | 2.02 | 2.29 | 2.54 | 3.94
0.724 | 0.173 | COc1cc(Nc2ncc(F)c(Nc3ccc4c(n3)NC(=O)C(C)(C)O4)n2)cc(OC)c1OC.O=S(=O)(O)c1ccccc1 [R406] + Cc1nc(Nc2ncc(C(=O)Nc3c(C)cccc3Cl)s2)cc(N2CCN(CCO)CC2)n1 [dasatinib] | 2.2 | > 10 | 0.24 | 0.908 | 1.58 | 1.57 | 0.139 | 0.232 | 0.675 | 0.0817 | 0.0338 | 0.235 | 0.347 | 0.0103 | 2.23 | 1.91 | 3.28 | 1.71 | 1.53 | 2.04 | 2.22 | 2.12
5.02 | 3.3 | FC(F)(F)c1ccc(Nc2nc3cc(Oc4ccnc(-c5ncc(C(F)(F)F)[nH]5)c4)ccc3[nH]2)cc1 [Raf265 derivative] + Cc1nc(Nc2ncc(C(=O)Nc3c(C)cccc3Cl)s2)cc(N2CCN(CCO)CC2)n1 [dasatinib] | 5.01 | > 10 | 3.55 | > 10 | 9.07 | > 10 | 0.318 | 0.241 | 0.633 | 0.137 | 0.173 | 0.484 | 0.476 | 0.551 | 2.37 | 2.47 | 3.35 | 2.21 | 2.35 | 2.47 | 2.73 | 3.44
2 | 0.366 | CN1CCN(CCOc2cc(OC3CCOCC3)c3c(Nc4c(Cl)ccc5c4OCO5)ncnc3c2)CC1 [Saracatinib (AZD0530)] + Cc1nc(Nc2ncc(C(=O)Nc3c(C)cccc3Cl)s2)cc(N2CCN(CCO)CC2)n1 [dasatinib] | 0.311 | > 10 | 0.878 | > 10 | 0.709 | 1.09 | 0.0614 | 0.333 | 0.616 | 0.192 | 0.14 | 0.536 | 0.102 | 0.158 | 1.68 | 2.28 | 3.19 | 1.79 | 2.01 | 2.39 | 2.19 | 2.51

The next lines start with the molecule.

SMILES | GI50 of drug (786-O [2]) [µM] | GI50 of drug (ACHN [4]) [µM] | GI50 of drug (769-P [1]) [µM] | GI50 of drug (A498 [3]) [µM] | GI50 of drug (CAKI-1 [5]) [µM] | GI50 of drug (SN12C [6]) [µM] | GI50 of drug (TK-10 [7]) [µM] | GI50 of drug (UO-31 [8]) [µM] | minimum viability across doses (769-P [9]) | minimum viability across doses (786-O [10]) | minimum viability across doses (A498 [11]) | minimum viability across doses (ACHN [12]) | minimum viability across doses (CAKI-1 [13]) | minimum viability across doses (SN12C [14]) | minimum viability across doses (TK-10 [15]) | minimum viability across doses (UO-31 [16]) | AUC of dose-response viability curve (769-P [17]) | AUC of dose-response viability curve (786-O [18]) | AUC of dose-response viability curve (A498 [19]) | AUC of dose-response viability curve (ACHN [20]) | AUC of dose-response viability curve (CAKI-1 [21]) | AUC of dose-response viability curve (SN12C [22]) | AUC of dose-response viability curve (TK-10 [23]) | AUC of dose-response viability curve (UO-31 [24])
Cl.N=C(N)NC(=N)NCCc1ccccc1 [Phenformin hydrochloride] + Cc1nc(Nc2ncc(C(=O)Nc3c(C)cccc3Cl)s2)cc(N2CCN(CCO)CC2)n1 [dasatinib] | 1.06 | 3.14 | > 10 | > 10 | > 10 | 4.33 | 5.02 | 4.39 | 0.623 | 0.115 | 0.676 | 0.357 | 0.578 | 0.114 | 0.315 | 0.194 | 2.41 | 1.84 | 3.25 | 2.08 | 2.28 | 2.36 | 2.35 | 2.83
Br.Cc1ccc(C(=O)Cn2c3c(sc2=N)CCCC3)cc1 [Pifithrin-α] + Cc1nc(Nc2ncc(C(=O)Nc3c(C)cccc3Cl)s2)cc(N2CCN(CCO)CC2)n1 [dasatinib] | > 10 | 3.78 | > 10 | > 10 | > 10 | > 10 | > 10 | > 10 | 0.696 | 0.535 | 0.901 | 0.391 | 0.529 | 0.656 | 0.59 | 0.998 | 2.63 | 2.26 | 3.57 | 2.03 | 2.13 | 2.53 | 2.3 | 4.02
Nc1cccc2c1C(=O)N(C1CCC(=O)NC1=O)C2=O (stereo unspecified) [Pomalidomide] + Cc1nc(Nc2ncc(C(=O)Nc3c(C)cccc3Cl)s2)cc(N2CCN(CCO)CC2)n1 [dasatinib] | > 10 | > 10 | > 10 | > 10 | > 10 | > 10 | > 10 | > 10 | 0.65 | 0.617 | 0.857 | 0.542 | 0.642 | 0.711 | 0.639 | 0.868 | 2.65 | 2.67 | 3.27 | 2.15 | 2.38 | 2.58 | 2.5 | 3.3
O=c1c(O)c(-c2ccc(O)c(O)c2)oc2cc(O)cc(O)c12 [Quercetin (Sophoretin)] + Cc1nc(Nc2ncc(C(=O)Nc3c(C)cccc3Cl)s2)cc(N2CCN(CCO)CC2)n1 [dasatinib] | > 10 | > 10 | > 10 | > 10 | > 10 | > 10 | > 10 | > 10 | 0.618 | 0.45 | 0.879 | 0.56 | 0.576 | 0.692 | 0.67 | 0.844 | 2.42 | 1.89 | 3.26 | 2.14 | 2.35 | 2.52 | 2.47 | 3.51
COc1cc(Nc2ncc(F)c(Nc3ccc4c(n3)NC(=O)C(C)(C)O4)n2)cc(OC)c1OC [R406(free base)] + Cc1nc(Nc2ncc(C(=O)Nc3c(C)cccc3Cl)s2)cc(N2CCN(CCO)CC2)n1 [dasatinib] | 0.571 | 0.032 | 1.53 | > 10 | 0.231 | 1.39 | 1.38 | 1.61 | 0.13 | 0.168 | 0.591 | 0.0361 | 0.0291 | 0.189 | 0.348 | 0.0124 | 2.08 | 1.77 | 3.18 | 1.11 | 1.54 | 2.05 | 2.19 | 3.16
COc1cc(Nc2ncc(F)c(Nc3ccc4c(n3)N(COP(=O)(O)O)C(=O)C(C)(C)O4)n2)cc(OC)c1OC [R788 (Fostamatinib)] + Cc1nc(Nc2ncc(C(=O)Nc3c(C)cccc3Cl)s2)cc(N2CCN(CCO)CC2)n1 [dasatinib] | 0.366 | 0.183 | 0.993 | > 10 | 0.195 | 0.983 | 0.963 | 2.4 | 0.0614 | 0.199 | 0.61 | 0.04 | 0.00427 | 0.179 | 0.254 | 0.0153 | 2 | 1.88 | 3.69 | 1.45 | 1.47 | 2.02 | 2.16 | 3.58
CC[C@H](CO)Nc1nc(NCc2ccccc2)c2ncn(C(C)C)c2n1 [Roscovitine (Seliciclib, CYC202)] + Cc1nc(Nc2ncc(C(=O)Nc3c(C)cccc3Cl)s2)cc(N2CCN(CCO)CC2)n1 [dasatinib] | 4.9 | 3.63 | > 10 | > 10 | > 10 | > 10 | > 10 | 9.07 | 0.595 | 0.259 | 0.847 | 0.266 | 0.514 | 0.669 | 0.675 | 0.272 | 2.52 | 2.32 | 3.29 | 2.15 | 2.54 | 2.52 | 2.74 | 3.04
